The values below come from US7456185B2, “Substituted quinazoline compounds useful as p38 kinase inhibitors” (Roche Palo Alto LLC, priority 2003, dated 2008).

One may read the melting point as the temperature, or range, at which the solid turns liquid.

The compound `CCOc1ccc2nc(NCC[S+](C)[O-])ncc2c1` (centres unmarked) [Example 11, (6-Ethoxy-quinazolin-2-yl)-(2-methanesulfinyl-ethyl)-amine] showed a melting point of 152.7 to 154.6 °C.

Turning to `CS(=O)(=O)N1CCC(Nc2ncc3cc(Oc4ccc(F)cc4F)ccc3n2)CC1` [Example 6], the melting point lay in the range of 173.9 to 177.1 °C.

For `CC(C)Nc1ncc2cc(Oc3ccc(F)cc3F)ccc2n1` [Example 2], the melting point lay in the range of 160 to 162.6 °C.

On to `CS(=O)(=O)CCNc1ncc2cc(Oc3ccc(F)cc3F)ccc2n1` [Example 5], for which the melting point lay in the range of 160.1 to 161.5 °C.

Take `OC1CCC(Nc2ncc3cc(Oc4ccc(F)cc4F)ccc3n2)CC1` (centres unmarked) [Example 8, 4-[6-(2,4-Difluoro-phenoxy)-quinazolin-2-ylamino]-cyclohexanol]: the melting point is 176.2 to 176.8 °C.

`OCCC(CCO)Nc1ncc2cc(Oc3ccc(F)cc3F)ccc2n1` [Example 3, 3-[6-(2,4-Difluorophenoxy)-quinazolin-2-ylamino]-pentane-1,5-diol] came in with a melting point of 112.9 to 113.6 °C.

For `OCC(O)CNc1ncc2cc(Oc3ccc(F)cc3F)ccc2n1` (centres unmarked) [Example 4, 3-[6-(2,4-Difluoro-phenoxy)-quinazolin-2-ylamino]-propane-1,2-diol], the melting point lay within 161.5 to 162.7 °C.

`CCC(CO)(CO)Nc1ncc2cc(Oc3ccc(F)cc3F)ccc2n1` [Example 1, 2-[6-(2,4-Difluoro-phenoxy)-quinazolin-2-ylamino]-2-ethyl-propane-1,3-diol] had a melting point of 110 to 112.9 °C.
